# Reference: patent US20100004234A1, “SPECIFIC KINASE INHIBITORS” (Kosan Biosciences Incorporated, priority 2004, published 2010)
# Assays:
# PKA(h) = PKA(h) (Homo sapiens, UniProt P17612); experiment: Kinase panel, residual activity; format: biochemical; conditions: read-out: Percent residual activity
# Procedure: (§1) In this panel of 124 kinases, 18 of the 19 kinases identified as having an active site cysteine were inhibited to some extent by hypothemycin at a concentration of 0.2 μM and/or 2 μM.
# Flt3(h) = Flt3(h) (Homo sapiens, UniProt P36888); experiment: Kinase panel, residual activity; format: biochemical; conditions: read-out: Percent residual activity
# Procedure: as §1
# Fyn(h) = Fyn(h) (Homo sapiens, UniProt P06241); experiment: Kinase panel, residual activity; format: biochemical; conditions: read-out: Percent residual activity
# Procedure: as §1
# Fms(h) = Fms(h) (Homo sapiens, UniProt P07333); experiment: Kinase panel, residual activity; format: biochemical; conditions: read-out: Percent residual activity
# Procedure: as §1
# Abl(T315I)(h) = Abl(T315I)(h) (Homo sapiens, UniProt P00519, T315I); experiment: Kinase panel, residual activity; format: biochemical; conditions: read-out: Percent residual activity
# Procedure: as §1
# Arg(h) = Arg(h) (Homo sapiens, UniProt P42684); experiment: Kinase panel, residual activity; format: biochemical; conditions: read-out: Percent residual activity
# Procedure: as §1
# PKCα(h) = PKCα(h) (Homo sapiens, UniProt P17252); experiment: Kinase panel, residual activity; format: biochemical; conditions: read-out: Percent residual activity
# Procedure: as §1
# MKK6(h) = MKK6(h) (Homo sapiens, UniProt P52564); experiment: Kinase panel, residual activity; format: biochemical; conditions: read-out: Percent residual activity
# Procedure: as §1
# MKK7β(h) = MKK7β(h) (Homo sapiens, UniProt O14733); experiment: Kinase panel, residual activity; format: biochemical; conditions: read-out: Percent residual activity
# Procedure: as §1
# EphA2(h) = EphA2(h) (Homo sapiens, UniProt P29317); experiment: Kinase panel, residual activity; format: biochemical; conditions: read-out: Percent residual activity
# Procedure: as §1
# EphB4(h) = EphB4(h) (Homo sapiens, UniProt P54760); experiment: Kinase panel, residual activity; format: biochemical; conditions: read-out: Percent residual activity
# Procedure: as §1
# PKBα(h) = PKBα(h) (Homo sapiens, UniProt P31749); experiment: Kinase panel, residual activity; format: biochemical; conditions: read-out: Percent residual activity
# Procedure: as §1
# RIPK2(h) = RIPK2(h) (Homo sapiens, UniProt O43353); experiment: Kinase panel, residual activity; format: biochemical; conditions: read-out: Percent residual activity
# Procedure: as §1
# JNK1α1(h) = JNK1α1(h) (Homo sapiens, UniProt P45983); experiment: Kinase panel, residual activity; format: biochemical; conditions: read-out: Percent residual activity
# Procedure: as §1
# FGFR4(h) = FGFR4(h) (Homo sapiens, UniProt P22455); experiment: Kinase panel, residual activity; format: biochemical; conditions: read-out: Percent residual activity
# Procedure: as §1
# SAPK2a(h) = SAPK2a(h) (Homo sapiens, UniProt Q16539); experiment: Kinase panel, residual activity; format: biochemical; conditions: read-out: Percent residual activity
# Procedure: as §1
# Bmx(h) = Bmx(h) (Homo sapiens, UniProt P51813); experiment: Kinase panel, residual activity; format: biochemical; conditions: read-out: Percent residual activity
# Procedure: as §1
# PKBβ(h) = PKBβ(h) (Homo sapiens, UniProt P31751); experiment: Kinase panel, residual activity; format: biochemical; conditions: read-out: Percent residual activity
# Procedure: as §1
# Flt3(D835Y)(h) = Flt3(D835Y)(h) (Homo sapiens, UniProt P36888, D835Y); experiment: Kinase panel, residual activity; format: biochemical; conditions: read-out: Percent residual activity
# Procedure: as §1
# MSK2(h) = MSK2(h) (Homo sapiens, UniProt O75676); experiment: Kinase panel, residual activity; format: biochemical; conditions: read-out: Percent residual activity
# Procedure: as §1
# GSK3β(h) = GSK3β(h) (Homo sapiens, UniProt P49841); experiment: Kinase panel, residual activity; format: biochemical; conditions: read-out: Percent residual activity
# Procedure: as §1
# CHK1(h) = CHK1(h) (Homo sapiens, UniProt O14757); experiment: Kinase panel, residual activity; format: biochemical; conditions: read-out: Percent residual activity
# Procedure: as §1
# ROCK-I(h) = ROCK-I(h) (Homo sapiens, UniProt Q13464); experiment: Kinase panel, residual activity; format: biochemical; conditions: read-out: Percent residual activity
# Procedure: as §1
# Flt1(h) = Flt1(h) (Homo sapiens, UniProt P17948); experiment: Kinase panel, residual activity; format: biochemical; conditions: read-out: Percent residual activity
# Procedure: as §1
# MSK1(h) = MSK1(h) (Homo sapiens, UniProt O75582); experiment: Kinase panel, residual activity; format: biochemical; conditions: read-out: Percent residual activity
# Procedure: as §1
# KDR = KDR (Homo sapiens, UniProt P35968); experiment: Kinase panel, residual activity; format: biochemical; conditions: read-out: Percent residual activity
# Procedure: as §1
# Abl(h) = Abl(h) (Homo sapiens, UniProt P00519); experiment: Kinase panel, residual activity; format: biochemical; conditions: read-out: Percent residual activity
# Procedure: as §1
# CDK2/cyclinA(h) = CDK2/cyclinA(h) (Homo sapiens, UniProt P24941); experiment: Kinase panel, residual activity; format: biochemical; conditions: read-out: Percent residual activity
# Procedure: as §1
# MAPKAP-K2(h) = MAPKAP-K2(h) (Homo sapiens, UniProt P49137); experiment: Kinase panel, residual activity; format: biochemical; conditions: read-out: Percent residual activity
# Procedure: as §1
# BTK(h) = BTK(h) (Homo sapiens, UniProt Q06187); experiment: Kinase panel, residual activity; format: biochemical; conditions: read-out: Percent residual activity
# Procedure: as §1
# PKCη(h) = PKCη(h) (Homo sapiens, UniProt P24723); experiment: Kinase panel, residual activity; format: biochemical; conditions: read-out: Percent residual activity
# Procedure: as §1
# Rsk3(h) = Rsk3(h) (Homo sapiens, UniProt Q15349); experiment: Kinase panel, residual activity; format: biochemical; conditions: read-out: Percent residual activity
# Procedure: as §1
# Tie2(h) = Tie2(h) (Homo sapiens, UniProt Q02763); experiment: Kinase panel, residual activity; format: biochemical; conditions: read-out: Percent residual activity
# Procedure: as §1
# ErbB4(h) = ErbB4(h) (Homo sapiens, UniProt Q15303); experiment: Kinase panel, residual activity; format: biochemical; conditions: read-out: Percent residual activity
# Procedure: as §1
# [1] = system: ERK1/2 activation in human T cells; conditions: tested at 0.3 to 3 μM; cited from earlier work
# Sequence of GSK3β(h) (P49841 whole entry): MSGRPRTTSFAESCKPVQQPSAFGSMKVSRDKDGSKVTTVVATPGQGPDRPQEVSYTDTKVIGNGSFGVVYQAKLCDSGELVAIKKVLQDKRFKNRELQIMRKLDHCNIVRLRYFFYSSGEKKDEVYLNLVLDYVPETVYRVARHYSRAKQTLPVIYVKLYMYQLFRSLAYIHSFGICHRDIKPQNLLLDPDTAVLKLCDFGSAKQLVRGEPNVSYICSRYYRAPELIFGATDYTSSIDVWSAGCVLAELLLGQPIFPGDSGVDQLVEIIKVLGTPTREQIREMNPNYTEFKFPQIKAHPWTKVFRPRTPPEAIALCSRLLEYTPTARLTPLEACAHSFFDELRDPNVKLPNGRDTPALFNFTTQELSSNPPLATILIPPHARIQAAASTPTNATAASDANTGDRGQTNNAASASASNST
# Sequence of MKK7β(h) (O14733 whole entry): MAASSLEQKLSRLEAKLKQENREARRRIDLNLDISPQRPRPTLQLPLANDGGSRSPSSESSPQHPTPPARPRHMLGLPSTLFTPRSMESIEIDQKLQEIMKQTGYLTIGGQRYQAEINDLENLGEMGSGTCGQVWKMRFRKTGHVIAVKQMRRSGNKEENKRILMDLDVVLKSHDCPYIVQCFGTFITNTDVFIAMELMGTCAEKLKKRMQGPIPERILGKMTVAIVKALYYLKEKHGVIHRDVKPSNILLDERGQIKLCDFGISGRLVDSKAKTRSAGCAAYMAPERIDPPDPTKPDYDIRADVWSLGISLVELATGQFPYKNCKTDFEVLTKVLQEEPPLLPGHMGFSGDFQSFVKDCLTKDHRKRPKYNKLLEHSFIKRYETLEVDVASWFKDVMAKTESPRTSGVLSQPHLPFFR
# Sequence of Flt1(h) (P17948 27-1338): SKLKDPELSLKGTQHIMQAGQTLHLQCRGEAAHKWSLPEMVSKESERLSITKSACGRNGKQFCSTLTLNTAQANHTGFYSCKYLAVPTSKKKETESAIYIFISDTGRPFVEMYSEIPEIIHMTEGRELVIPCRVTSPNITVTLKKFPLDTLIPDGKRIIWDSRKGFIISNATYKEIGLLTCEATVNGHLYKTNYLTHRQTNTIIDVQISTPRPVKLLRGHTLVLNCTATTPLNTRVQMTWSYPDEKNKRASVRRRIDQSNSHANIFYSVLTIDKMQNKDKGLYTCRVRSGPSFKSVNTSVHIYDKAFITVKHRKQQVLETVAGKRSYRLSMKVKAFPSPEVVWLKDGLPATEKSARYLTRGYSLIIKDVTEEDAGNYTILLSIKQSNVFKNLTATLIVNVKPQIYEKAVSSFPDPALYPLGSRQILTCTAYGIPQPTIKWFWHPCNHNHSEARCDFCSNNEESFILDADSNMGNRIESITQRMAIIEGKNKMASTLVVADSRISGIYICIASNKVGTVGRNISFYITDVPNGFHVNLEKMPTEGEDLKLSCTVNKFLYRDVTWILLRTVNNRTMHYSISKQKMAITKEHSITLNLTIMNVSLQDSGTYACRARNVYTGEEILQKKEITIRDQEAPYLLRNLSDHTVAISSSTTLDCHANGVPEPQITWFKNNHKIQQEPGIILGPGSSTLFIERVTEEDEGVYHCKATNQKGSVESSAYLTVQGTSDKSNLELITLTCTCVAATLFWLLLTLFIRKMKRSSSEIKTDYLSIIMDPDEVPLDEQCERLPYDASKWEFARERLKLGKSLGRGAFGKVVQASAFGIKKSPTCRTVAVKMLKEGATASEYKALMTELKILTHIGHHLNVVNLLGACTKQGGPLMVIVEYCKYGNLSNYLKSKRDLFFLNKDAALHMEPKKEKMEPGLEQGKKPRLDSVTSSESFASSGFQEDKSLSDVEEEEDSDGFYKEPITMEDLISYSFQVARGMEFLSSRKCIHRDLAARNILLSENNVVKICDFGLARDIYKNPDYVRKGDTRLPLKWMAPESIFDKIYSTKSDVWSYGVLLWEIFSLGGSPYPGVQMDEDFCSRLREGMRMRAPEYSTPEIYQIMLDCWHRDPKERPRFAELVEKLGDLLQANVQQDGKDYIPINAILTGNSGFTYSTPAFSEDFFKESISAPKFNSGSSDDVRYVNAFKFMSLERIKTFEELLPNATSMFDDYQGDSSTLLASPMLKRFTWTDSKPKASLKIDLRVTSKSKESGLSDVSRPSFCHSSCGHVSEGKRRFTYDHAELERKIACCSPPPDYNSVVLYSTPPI
# Sequence of MKK6(h) (P52564 whole entry): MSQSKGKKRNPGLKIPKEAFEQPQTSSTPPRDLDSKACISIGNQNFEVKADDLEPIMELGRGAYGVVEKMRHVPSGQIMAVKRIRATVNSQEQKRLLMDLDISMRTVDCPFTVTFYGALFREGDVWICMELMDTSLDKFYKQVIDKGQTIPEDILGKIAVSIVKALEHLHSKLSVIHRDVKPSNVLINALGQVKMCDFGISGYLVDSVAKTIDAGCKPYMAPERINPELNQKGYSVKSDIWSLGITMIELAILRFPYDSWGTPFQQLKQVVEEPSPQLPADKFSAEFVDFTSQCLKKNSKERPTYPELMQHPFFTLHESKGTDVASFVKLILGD
# Sequence of Fms(h) (P07333 20-972): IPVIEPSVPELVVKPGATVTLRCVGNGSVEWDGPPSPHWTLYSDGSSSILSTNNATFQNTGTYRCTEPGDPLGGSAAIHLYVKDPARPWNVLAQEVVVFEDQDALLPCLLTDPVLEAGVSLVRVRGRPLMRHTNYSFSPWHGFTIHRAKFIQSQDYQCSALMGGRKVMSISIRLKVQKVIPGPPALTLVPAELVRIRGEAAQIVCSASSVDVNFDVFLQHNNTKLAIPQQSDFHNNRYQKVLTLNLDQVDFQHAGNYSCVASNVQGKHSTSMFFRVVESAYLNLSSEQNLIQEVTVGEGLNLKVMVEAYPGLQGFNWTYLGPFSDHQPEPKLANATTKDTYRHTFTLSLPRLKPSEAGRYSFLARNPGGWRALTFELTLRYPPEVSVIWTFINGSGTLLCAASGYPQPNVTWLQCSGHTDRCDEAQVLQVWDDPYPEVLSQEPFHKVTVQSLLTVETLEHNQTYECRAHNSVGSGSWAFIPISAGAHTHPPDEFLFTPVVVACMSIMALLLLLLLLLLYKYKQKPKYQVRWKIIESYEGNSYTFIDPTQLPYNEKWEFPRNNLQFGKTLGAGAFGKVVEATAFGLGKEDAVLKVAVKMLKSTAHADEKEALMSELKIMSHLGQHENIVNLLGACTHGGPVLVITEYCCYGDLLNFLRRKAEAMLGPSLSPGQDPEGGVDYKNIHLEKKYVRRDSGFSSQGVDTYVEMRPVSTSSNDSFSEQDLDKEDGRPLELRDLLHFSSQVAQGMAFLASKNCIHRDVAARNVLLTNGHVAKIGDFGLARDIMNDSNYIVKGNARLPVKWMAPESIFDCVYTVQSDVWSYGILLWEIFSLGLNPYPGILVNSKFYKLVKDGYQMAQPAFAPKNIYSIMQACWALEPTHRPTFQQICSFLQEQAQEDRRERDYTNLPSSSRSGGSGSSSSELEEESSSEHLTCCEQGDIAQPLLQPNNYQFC
# Sequence of BTK(h) (Q06187 whole entry): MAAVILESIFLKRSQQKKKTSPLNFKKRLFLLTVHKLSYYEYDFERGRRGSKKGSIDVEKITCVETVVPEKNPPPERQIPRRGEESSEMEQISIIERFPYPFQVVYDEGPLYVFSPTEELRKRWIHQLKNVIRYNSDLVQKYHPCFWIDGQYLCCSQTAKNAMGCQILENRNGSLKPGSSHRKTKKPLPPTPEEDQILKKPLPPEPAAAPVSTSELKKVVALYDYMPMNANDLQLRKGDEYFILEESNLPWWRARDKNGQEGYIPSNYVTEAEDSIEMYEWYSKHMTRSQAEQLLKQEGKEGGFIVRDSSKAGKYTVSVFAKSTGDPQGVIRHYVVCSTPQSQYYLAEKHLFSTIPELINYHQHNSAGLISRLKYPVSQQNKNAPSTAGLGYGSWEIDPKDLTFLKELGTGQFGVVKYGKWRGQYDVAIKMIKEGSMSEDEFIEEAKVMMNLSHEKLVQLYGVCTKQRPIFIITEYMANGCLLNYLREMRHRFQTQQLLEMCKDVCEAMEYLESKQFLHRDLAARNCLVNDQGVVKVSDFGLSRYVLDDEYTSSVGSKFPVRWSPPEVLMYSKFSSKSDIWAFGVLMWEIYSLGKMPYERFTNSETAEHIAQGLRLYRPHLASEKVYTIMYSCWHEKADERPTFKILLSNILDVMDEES
# Sequence of Rsk3(h) (Q15349 whole entry): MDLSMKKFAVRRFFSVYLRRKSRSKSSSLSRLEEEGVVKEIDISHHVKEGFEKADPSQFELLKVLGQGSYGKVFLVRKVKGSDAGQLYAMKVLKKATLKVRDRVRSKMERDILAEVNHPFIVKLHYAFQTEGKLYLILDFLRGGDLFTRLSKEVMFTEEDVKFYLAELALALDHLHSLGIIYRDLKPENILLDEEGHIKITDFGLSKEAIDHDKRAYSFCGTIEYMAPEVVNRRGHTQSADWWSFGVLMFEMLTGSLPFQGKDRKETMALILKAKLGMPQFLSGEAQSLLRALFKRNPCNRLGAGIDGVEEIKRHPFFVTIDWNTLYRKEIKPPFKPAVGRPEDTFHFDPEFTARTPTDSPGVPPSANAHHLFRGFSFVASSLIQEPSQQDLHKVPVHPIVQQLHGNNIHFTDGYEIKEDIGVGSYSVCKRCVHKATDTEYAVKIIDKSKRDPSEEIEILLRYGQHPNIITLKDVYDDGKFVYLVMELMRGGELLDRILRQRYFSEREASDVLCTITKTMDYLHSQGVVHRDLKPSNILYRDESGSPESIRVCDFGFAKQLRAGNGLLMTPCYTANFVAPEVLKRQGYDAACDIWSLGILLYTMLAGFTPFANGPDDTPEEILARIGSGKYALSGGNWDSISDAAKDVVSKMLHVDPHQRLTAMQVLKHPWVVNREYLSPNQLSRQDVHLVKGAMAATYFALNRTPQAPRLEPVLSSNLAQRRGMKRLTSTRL
smiles,measurement,setting,value
"COc1cc(O)c2c(c1)[C@H]1O[C@@H]1C[C@H](O)[C@H](O)C(=O)/C=C\C[C@H](C)OC2=O [Hypothemycin, hypothemycin]",remaining activity at 0.2 µM,PKA(h),108%
same,remaining activity at 0.2 µM,Flt3(h); 0.2 μM,6%
same,remaining activity at 2 µM,Flt3(h); 2.0 μM,3%
same,remaining activity at 0.2 µM,Fyn(h),87%
same,remaining activity at 0.2 µM,Fms(h); 0.2 μM,91%
same,remaining activity at 2 µM,Fms(h); 2.0 μM,90%
same,remaining activity at 0.2 µM,Abl(T315I)(h),90%
same,remaining activity at 0.2 µM,Arg(h),98%
same,remaining activity at 0.2 µM,PKCα(h),96%
same,remaining activity at 0.2 µM,MKK6(h); 0.2 μM,43%
same,remaining activity at 2 µM,MKK6(h); 2.0 μM,8%
same,remaining activity at 0.2 µM,MKK7β(h); 0.2 μM,85%
same,remaining activity at 2 µM,MKK7β(h); 2.0 μM,41%
same,remaining activity at 0.2 µM,EphA2(h),87%
same,remaining activity at 0.2 µM,EphB4(h),82%
same,remaining activity at 0.2 µM,PKBα(h),153%
same,remaining activity at 0.2 µM,RIPK2(h),101%
same,remaining activity at 0.2 µM,JNK1α1(h),97%
same,remaining activity at 0.2 µM,FGFR4(h),87%
same,remaining activity at 0.2 µM,SAPK2a(h),107%
same,remaining activity at 0.2 µM,Bmx(h),99%
same,remaining activity at 0.2 µM,PKBβ(h),91%
same,remaining activity at 0.2 µM,Flt3(D835Y)(h); 0.2 μM,4%
same,remaining activity at 2 µM,Flt3(D835Y)(h); 2.0 μM,2%
same,remaining activity at 0.2 µM,MSK2(h),101%
same,remaining activity at 0.2 µM,GSK3β(h); 0.2 μM,90%
same,remaining activity at 2 µM,GSK3β(h); 2.0 μM,40%
same,remaining activity at 0.2 µM,CHK1(h),94%
same,remaining activity at 0.2 µM,ROCK-I(h),121%
same,remaining activity at 0.2 µM,Flt1(h); 0.2 μM,2%
same,remaining activity at 2 µM,Flt1(h); 2.0 μM,7%
same,remaining activity at 0.2 µM,MSK1(h),87%
same,remaining activity at 2 µM,KDR,15%
same,remaining activity at 0.2 µM,Abl(h),98%
same,remaining activity at 0.2 µM,CDK2/cyclinA(h); 0.2 μM,634%
same,remaining activity at 2 µM,CDK2/cyclinA(h); 2.0 μM,106%
same,remaining activity at 0.2 µM,MAPKAP-K2(h),98%
same,remaining activity at 0.2 µM,BTK(h),104%
same,remaining activity at 0.2 µM,PKCη(h),97%
same,remaining activity at 0.2 µM,Rsk3(h),94%
same,remaining activity at 0.2 µM,Tie2(h),93%
same,remaining activity at 0.2 µM,ErbB4(h),124%
same,inhibition of the activation of ERK1/2,[1],inhibit
